{"source": "ChEMBL document CHEMBL4725427", "about": "“Synthesis and SAR Studies of 1H-Pyrrolo[2,3-b]pyridine-2-carboxamides as Phosphodiesterase 4B (PDE4B) Inhibitors” (ACS Med Chem Lett, 2020)", "key": {"[1]": {"molecular_target": "T1, 3',5'-cyclic-AMP phosphodiesterase 4B (Homo sapiens, UniProt Q07343)", "T1 sequence (Q07343 whole entry)": "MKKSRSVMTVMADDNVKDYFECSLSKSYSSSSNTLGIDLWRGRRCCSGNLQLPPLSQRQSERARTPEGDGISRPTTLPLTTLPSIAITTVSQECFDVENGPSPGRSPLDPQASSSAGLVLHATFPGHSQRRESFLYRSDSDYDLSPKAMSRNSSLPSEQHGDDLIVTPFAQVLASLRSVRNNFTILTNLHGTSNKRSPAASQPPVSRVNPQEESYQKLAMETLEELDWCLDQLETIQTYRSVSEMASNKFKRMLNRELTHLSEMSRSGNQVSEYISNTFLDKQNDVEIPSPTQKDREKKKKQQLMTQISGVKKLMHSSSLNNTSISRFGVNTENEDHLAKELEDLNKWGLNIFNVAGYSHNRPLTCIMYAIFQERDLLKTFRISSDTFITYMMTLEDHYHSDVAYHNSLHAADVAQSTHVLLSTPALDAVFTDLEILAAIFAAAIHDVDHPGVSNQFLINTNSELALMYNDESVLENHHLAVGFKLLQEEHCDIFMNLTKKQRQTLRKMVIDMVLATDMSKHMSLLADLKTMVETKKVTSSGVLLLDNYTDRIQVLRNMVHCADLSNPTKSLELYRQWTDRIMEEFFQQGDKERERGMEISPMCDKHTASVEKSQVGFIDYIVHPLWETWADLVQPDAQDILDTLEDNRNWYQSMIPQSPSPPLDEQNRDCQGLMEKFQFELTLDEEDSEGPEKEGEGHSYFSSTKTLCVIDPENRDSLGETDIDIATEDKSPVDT", "experiment": "Inhibition of recombinant human C-terminal His-tagged N-terminal GST-tagged PDE4B2 expressed in baculovirus infected Sf9 cells by radioligand binding assay", "assay_type": "cell-based"}, "[2]": {"molecular_target": "T1, 3',5'-cyclic-AMP phosphodiesterase 4B", "experiment": "Inhibition of recombinant human C-terminal His-tagged N-terminal GST-tagged PDE4B2 expressed in baculovirus infected Sf9 cells at 10 uM by radioligand binding assay relative to control"}, "[3]": {"experiment": "Metabolic stability in mouse liver microsomes assessed as intrinsic clearance", "assay_type": "ADME, Microsome", "conditions": "read-out: CLH"}, "[4]": {"experiment": "Protein binding in human plasma assessed as unbound fraction", "assay_type": "ADME, cell-free"}, "[5]": {"experiment": "Protein binding in mouse plasma assessed as unbound fraction", "assay_type": "ADME, cell-free"}, "[6]": {"experiment": "Metabolic stability in human liver microsomes assessed as intrinsic clearance", "assay_type": "ADME, Microsome", "conditions": "read-out: CLH"}, "[7]": {"experiment": "Effect on TNFalpha production in C57BL/6 mouse bone marrow derived Macrophage at 1 to 10 uM incubated for 30 mins by ELISA", "conditions": "0.5 h"}}}
{"smiles": "O=C(NC1CC1)c1nn2ccccc2c1-c1ccc(Cl)c(Cl)c1", "values": [{"measurement": "IC50", "setting": "[1]", "result": 4.2, "unit": "µM"}]}
{"smiles": "Cc1ccc(-c2c(C(=O)NC3CC3)n(C)c3cccnc23)cc1Cl", "values": [{"measurement": "inhibition", "setting": "[2]", "result": 56, "unit": "%"}]}
{"smiles": "COc1ccc(-n2c(C(=O)N3CC(F)C3)cc3cccnc32)cc1F", "values": [{"measurement": "inhibition", "setting": "[2]", "result": 77, "unit": "%"}]}
{"smiles": "Cc1ccc(-c2c(C(=O)NC3CC3)sc3nccnc23)cc1Cl", "values": [{"measurement": "inhibition", "setting": "[2]", "result": 46, "unit": "%"}]}
{"smiles": "O=C(c1cc2ccccc2n1-c1ccc(Cl)c(Cl)c1)N1CC(F)C1", "values": [{"measurement": "inhibition", "setting": "[2]", "result": 58, "unit": "%"}]}
{"smiles": "N#Cc1c(F)cc(-n2c(C(=O)N3CC(F)(F)C3)cc3cccnc32)cc1F", "values": [{"measurement": "inhibition", "setting": "[2]", "result": 41, "unit": "%"}]}
{"smiles": "O=C(c1cc2cccnc2n1-c1ccnc(F)c1)N1CC(F)C1", "values": [{"measurement": "CLint scaled", "setting": "[3]", "result": "< 49.5", "unit": "mL/min/kg"}, {"measurement": "fraction unbound", "setting": "[4]", "result": 0.474}, {"measurement": "fraction unbound", "setting": "[5]", "result": 0.393}, {"measurement": "CLint scaled", "setting": "[6]", "result": "< 23.1", "unit": "mL/min/kg"}]}
{"smiles": "N#Cc1c(F)cc(-n2c(C(=O)NC3CC(F)C3)cc3cccnc32)cc1F", "note": "(stereo not drawn)", "values": [{"measurement": "inhibition", "setting": "[2]", "result": 58, "unit": "%"}]}
{"smiles": "O=C(c1cc2cccnc2n1-c1ccc(Cl)c(F)c1)N1CC(F)(F)C1", "values": [{"measurement": "inhibition", "setting": "[2]", "result": 48, "unit": "%"}]}
{"smiles": "O=C(c1cc2cccnc2n1Cc1ccc(Cl)c(Cl)c1)N1CC(F)C1", "values": [{"measurement": "inhibition", "setting": "[2]", "result": 72, "unit": "%"}]}
{"smiles": "O=C(c1cc2cccnc2n1-c1ccc(Cl)c(F)c1)N1CC(F)C1", "values": [{"measurement": "Activity", "setting": "[7]", "result": "Non-Toxic"}]}
{"smiles": "O=C(c1nc2ccccc2n1-c1ccc(Cl)c(Cl)c1)N1CC(F)C1", "values": [{"measurement": "IC50", "setting": "[1]", "result": 2.4, "unit": "µM"}]}
{"smiles": "COc1c(F)cc(-n2c(C(=O)N3CC(F)(F)C3)cc3cccnc32)cc1F", "values": [{"measurement": "inhibition", "setting": "[2]", "result": 35, "unit": "%"}]}
{"smiles": "Cc1ccc(-n2c(C(=O)NC3CC3)cc3cccnc32)cc1Cl", "values": [{"measurement": "CLint scaled", "setting": "[3]", "result": 551, "unit": "mL/min/kg"}, {"measurement": "fraction unbound", "setting": "[4]", "result": 0.011}, {"measurement": "fraction unbound", "setting": "[5]", "result": 0.006}, {"measurement": "CLint scaled", "setting": "[6]", "result": 172, "unit": "mL/min/kg"}]}
{"smiles": "Cc1ccc(-n2c(C(=O)NC3CC(F)C3)cc3cccnc32)cc1Cl", "note": "(stereo not drawn)", "values": [{"measurement": "Activity", "setting": "[7]", "result": "Non-Toxic"}, {"measurement": "IC50", "setting": "[1]", "result": 9.4, "unit": "µM"}]}
{"smiles": "O=C(NC1CC(F)(F)C1)c1cc2cccnc2n1-c1ccc(Cl)c(Cl)c1", "values": [{"measurement": "inhibition", "setting": "[2]", "result": 23, "unit": "%"}]}
{"smiles": "COc1ncc(-n2c(C(=O)N3CC(F)C3)cc3cccnc32)cc1Cl", "values": [{"measurement": "CLint scaled", "setting": "[3]", "result": 134, "unit": "mL/min/kg"}, {"measurement": "Activity", "setting": "[7]", "result": "Non-Toxic"}, {"measurement": "fraction unbound", "setting": "[4]", "result": 0.049}, {"measurement": "fraction unbound", "setting": "[5]", "result": 0.066}, {"measurement": "CLint scaled", "setting": "[6]", "result": "< 23.1", "unit": "mL/min/kg"}]}
{"smiles": "O=C(NC1CC1)c1cc2cccnc2n1-c1ccc(Cl)c(Cl)c1", "values": [{"measurement": "CLint scaled", "setting": "[3]", "result": 157, "unit": "mL/min/kg"}, {"measurement": "fraction unbound", "setting": "[4]", "result": 0.026}, {"measurement": "fraction unbound", "setting": "[5]", "result": 0.006}, {"measurement": "CLint scaled", "setting": "[6]", "result": 179, "unit": "mL/min/kg"}]}
{"smiles": "O=C(NCc1ccco1)c1cc2cccnc2n1-c1ccc(Cl)c(Cl)c1", "values": [{"measurement": "inhibition", "setting": "[2]", "result": 70, "unit": "%"}]}
{"smiles": "O=C(c1cc2cccnc2n1-c1ccnc(F)c1)N1CC(F)(F)C1", "values": [{"measurement": "inhibition", "setting": "[2]", "result": 37, "unit": "%"}]}
{"smiles": "O=C(c1cc2cccnc2n1-c1cc(F)c(Cl)c(F)c1)N1CC(F)(F)C1", "values": [{"measurement": "CLint scaled", "setting": "[3]", "result": 104, "unit": "mL/min/kg"}, {"measurement": "Activity", "setting": "[7]", "result": "Non-Toxic"}, {"measurement": "inhibition", "setting": "[2]", "result": 48, "unit": "%"}, {"measurement": "fraction unbound", "setting": "[4]", "result": 0.113}, {"measurement": "fraction unbound", "setting": "[5]", "result": 0.051}, {"measurement": "CLint scaled", "setting": "[6]", "result": 33.3, "unit": "mL/min/kg"}]}
{"smiles": "O=C(c1cc2cccnc2n1-c1ccc(Cl)cc1)N1CC(F)(F)C1", "values": [{"measurement": "inhibition", "setting": "[2]", "result": 47, "unit": "%"}]}
{"smiles": "COc1c(F)cc(-n2c(C(=O)N3CC(F)C3)cc3cccnc32)cc1F", "values": [{"measurement": "CLint scaled", "setting": "[3]", "result": "< 49.5", "unit": "mL/min/kg"}, {"measurement": "Activity", "setting": "[7]", "result": "Non-Toxic"}, {"measurement": "fraction unbound", "setting": "[4]", "result": 0.302}, {"measurement": "fraction unbound", "setting": "[5]", "result": 0.133}, {"measurement": "CLint scaled", "setting": "[6]", "result": "< 23.1", "unit": "mL/min/kg"}]}
{"smiles": "Cc1ccc(-n2c(C(=O)N3CC(F)(F)C3)cc3cccnc32)cc1Cl", "values": [{"measurement": "inhibition", "setting": "[2]", "result": 47, "unit": "%"}]}
{"smiles": "COc1ccc(-n2c(C(=O)N3CC(F)C3)cc3cccnc32)cc1", "values": [{"measurement": "inhibition", "setting": "[2]", "result": 67, "unit": "%"}]}
{"smiles": "N#Cc1c(F)cc(-n2c(C(=O)NC3CC(F)(F)C3)cc3cccnc32)cc1F", "values": [{"measurement": "inhibition", "setting": "[2]", "result": 47, "unit": "%"}]}
{"smiles": "Cc1ccc(-n2c(C(=O)NC3CC3)nc3cccnc32)cc1Cl", "values": [{"measurement": "CLint scaled", "setting": "[3]", "result": 150, "unit": "mL/min/kg"}, {"measurement": "fraction unbound", "setting": "[4]", "result": 0.085}, {"measurement": "fraction unbound", "setting": "[5]", "result": 0.056}, {"measurement": "CLint scaled", "setting": "[6]", "result": 29.6, "unit": "mL/min/kg"}]}
{"smiles": "COc1ccc(C2CNC(=O)C2)cc1OC1CCCC1", "note": "(stereo not drawn) [ROLIPRAM]", "values": [{"measurement": "Activity", "setting": "[7]", "result": "Non-Toxic"}]}
{"smiles": "N#Cc1c(F)cc(-n2c(C(=O)NC3CC3)cc3cccnc32)cc1F", "values": [{"measurement": "CLint scaled", "setting": "[3]", "result": "< 49.5", "unit": "mL/min/kg"}, {"measurement": "fraction unbound", "setting": "[4]", "result": 0.235}, {"measurement": "fraction unbound", "setting": "[5]", "result": 0.096}, {"measurement": "CLint scaled", "setting": "[6]", "result": 31.5, "unit": "mL/min/kg"}]}
